Assays:
[1] = tested on: sedge, umbrella; experiment: Test B flooded paddy test; type: in vivo, Cyperus difformis; details: Flood, 250 g ai/ha; 0 to 100 scale where 0 is no effect and 100 is complete control
Outline: (§1)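 Seedlings are raised to two leaves, flooded to a depth of 3 cm and dosed by adding the compound to the floodwater. Water level is kept constant, and plants are scored visually versus controls 13–15 days later (0 = no effect, 100 = complete control).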

[2] = tested on: large (Lg) crabgrass; experiment: Test A preemergence; type: in vivo, Digitaria sanguinalis; details: for Plant response rating, Crabgrass, Large: 125 g ai/ha, 0 to 100 scale where 0 is no effect and 100 is complete control; for Crabgrass, Large plant response rating: 500 g ai/ha, 0 to 100 scale, 0 no effect, 100 complete control, approx. 10 days
Outline: (§2)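 Visual 0–100 rating (100 = complete control) taken about 10 d post-treatment relative to untreated checks. Preemergence: directed soil spray on sown loam/sand pots. Postemergence: seedlings 2–10 cm, 1–2 leaf. Non-phytotoxic solvent formulation with surfactant.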

[3] = tested on: rice; experiment: Test B flooded paddy test; type: in vivo, Oryza sativa; details: Flood, 250 g ai/ha; 0 to 100 scale where 0 is no effect and 100 is complete control
Outline: as §1

[4] = tested on: barnyardgrass; experiment: Test A preemergence; type: in vivo, Echinochloa crus-galli; details: for Plant response rating, Barnyardgrass: 125 g ai/ha, 0 to 100 scale where 0 is no effect and 100 is complete control; for Barnyardgrass plant response rating: 500 g ai/ha, 0 to 100 scale, 0 no effect, 100 complete control, approx. 10 days
Outline: as §2

[5] = tested on: velvetleaf; experiment: Test A postemergence; type: in vivo, Abutilon theophrasti
Outline: as §2

[6] = tested on: corn; experiment: Test A postemergence; type: in vivo, Zea mays
Outline: as §2

[7] = tested on: wheat; experiment: Test A preemergence; type: in vivo, Triticum aestivum; details: for Plant response rating, Wheat: 125 g ai/ha, 0 to 100 scale where 0 is no effect and 100 is complete control; for Wheat plant response rating: 500 g ai/ha, 0 to 100 scale, 0 no effect, 100 complete control, approx. 10 days
Outline: as §2

[8] = tested on: barnyardgrass; experiment: Test A postemergence; type: in vivo, Echinochloa crus-galli
Outline: as §2

[9] = tested on: giant foxtail; experiment: Test A postemergence; type: in vivo, Setaria faberii
Outline: as §2

[10] = tested on: morningglory; experiment: Test A preemergence; type: in vivo, Ipomoea spp.; details: for Plant response rating, Morningglory: 125 g ai/ha, 0 to 100 scale where 0 is no effect and 100 is complete control; for Morningglory plant response rating: 500 g ai/ha, 0 to 100 scale, 0 no effect, 100 complete control, approx. 10 days
Outline: as §2

[11] = tested on: wheat; experiment: Test A postemergence; type: in vivo, Triticum aestivum
Outline: as §2

[12] = tested on: corn; experiment: Test A preemergence; type: in vivo, Zea mays; details: for Plant response rating, Corn: 125 g ai/ha, 0 to 100 scale where 0 is no effect and 100 is complete control; for Corn plant response rating: 500 g ai/ha, 0 to 100 scale, 0 no effect, 100 complete control, approx. 10 days
Outline: as §2

[13] = tested on: Heteranthera limosa; experiment: Test B flooded paddy test; type: in vivo; details: Flood, 250 g ai/ha; 0 to 100 scale where 0 is no effect and 100 is complete control
Outline: as §1

[14] = tested on: barnyardgrass; experiment: Test B flooded paddy test; type: in vivo, Echinochloa crus-galli; details: Flood, 250 g ai/ha; 0 to 100 scale where 0 is no effect and 100 is complete control
Outline: as §1

[15] = tested on: pigweed; experiment: Test A postemergence; type: in vivo, Amaranthus retroflexus
Outline: as §2

[16] = tested on: pigweed; experiment: Test A preemergence; type: in vivo, Amaranthus retroflexus; details: for Plant response rating, Pigweed: 125 g ai/ha, 0 to 100 scale where 0 is no effect and 100 is complete control; for Pigweed plant response rating: 500 g ai/ha, 0 to 100 scale, 0 no effect, 100 complete control, approx. 10 days
Outline: as §2

[17] = tested on: large (Lg) crabgrass; experiment: Test A postemergence; type: in vivo, Digitaria sanguinalis
Outline: as §2

[18] = tested on: morningglory; experiment: Test A postemergence; type: in vivo, Ipomoea spp.
Outline: as §2

[19] = tested on: giant foxtail; experiment: Test A preemergence; type: in vivo, Setaria faberii; details: for Plant response rating, Foxtail, Giant: 125 g ai/ha, 0 to 100 scale where 0 is no effect and 100 is complete control; for Foxtail, Giant plant response rating: 500 g ai/ha, 0 to 100 scale, 0 no effect, 100 complete control, approx. 10 days
Outline: as §2

[20] = tested on: velvetleaf; experiment: Test A preemergence; type: in vivo, Abutilon theophrasti; details: for Plant response rating, Velvetleaf: 125 g ai/ha, 0 to 100 scale where 0 is no effect and 100 is complete control; for Velvetleaf plant response rating: 500 g ai/ha, 0 to 100 scale, 0 no effect, 100 complete control, approx. 10 days
Outline: as §2

[21] = 125 g ai/ha, 0 to 100 scale where 0 is no effect and 100 is complete control
[22] = 500 g ai/ha, 0 to 100 scale, 0 no effect, 100 complete control

| Compound | Plant response rating, Sedge, Umbrella [1] | Plant response rating, Crabgrass, Large [2] | Crabgrass, Large plant response rating [2] | Plant response rating, Rice [3] | Plant response rating, Barnyardgrass [4] | Barnyardgrass plant response rating [4] | Plant response rating, Velvetleaf [5, 21] | Plant response rating, Velvetleaf [5, 22] | Plant response rating, Corn [6, 21] | Plant response rating, Corn [6, 22] | Plant response rating, Wheat [7] | Wheat plant response rating [7] | Plant response rating, Barnyardgrass [8, 21] | Plant response rating, Barnyardgrass [8, 22] | Plant response rating, Foxtail, Giant [9, 21] | Plant response rating, Foxtail, Giant [9, 22] | Plant response rating, Morningglory [10] | Morningglory plant response rating [10] | Plant response rating, Wheat [11, 21] | Plant response rating, Wheat [11, 22] | other results |
| --- | --- | --- | --- | --- | --- | --- | --- | --- | --- | --- | --- | --- | --- | --- | --- | --- | --- | --- | --- | --- | --- |
| C=Cc1cnn(-c2ccccc2Oc2ncc(Cl)cn2)c1 [Compound 31] | 30 | 50 | 90 | 25 | 20 | 50 | 100 | 100 | 0 | 20 | 0 | 0 | 10 | 50 | 40 | 50 | 0 | 0 | 0 | 0 | Plant response rating, Corn [12]: 0; Corn plant response rating [12]: 0; Plant response rating, Ducksalad [13]: 80; Plant response rating, Barnyardgrass [14]: 0; Plant response rating, Pigweed [15, 21]: 40; Plant response rating, Pigweed [15, 22]: 70; Plant response rating, Pigweed [16]: 40; Pigweed plant response rating [16]: 60; Plant response rating, Crabgrass, Large [17, 21]: 50; Plant response rating, Crabgrass, Large [17, 22]: 60; Plant response rating, Morningglory [18, 21]: 0; Plant response rating, Morningglory [18, 22]: 30; Plant response rating, Foxtail, Giant [19]: 20; Foxtail, Giant plant response rating [19]: 90; Plant response rating, Velvetleaf [20]: 50; Velvetleaf plant response rating [20]: 90 |
| C=C(C)c1cnn(-c2ccccc2Oc2ncc(Cl)cn2)c1 [Compound 32] | 0 | 0 | 60 | 15 | 0 | 60 | 80 | 100 | 0 | 20 | 0 | 0 | 0 | 20 | 0 | 30 | 0 | 0 | 0 | 0 | Plant response rating, Corn [12]: 0; Corn plant response rating [12]: 0; Plant response rating, Ducksalad [13]: 0; Plant response rating, Barnyardgrass [14]: 0; Plant response rating, Pigweed [15, 21]: 50; Plant response rating, Pigweed [15, 22]: 70; Plant response rating, Pigweed [16]: 0; Pigweed plant response rating [16]: 40; Plant response rating, Crabgrass, Large [17, 21]: 50; Plant response rating, Crabgrass, Large [17, 22]: 50; Plant response rating, Morningglory [18, 21]: 0; Plant response rating, Morningglory [18, 22]: 0; Plant response rating, Foxtail, Giant [19]: 0; Foxtail, Giant plant response rating [19]: 70; Plant response rating, Velvetleaf [20]: 10; Velvetleaf plant response rating [20]: 70 |
| COc1ccc(Oc2ncc(Br)cn2)c(-n2cc(Br)cn2)c1 [Compound 43] | 0 | 10 | 50 | 0 | 0 | 10 | 60 | 100 | 0 | 10 | 0 | 0 | 0 | 10 | 0 | 40 | 0 | 0 | 0 | 0 | Plant response rating, Corn [12]: 0; Corn plant response rating [12]: 0; Plant response rating, Ducksalad [13]: 75; Plant response rating, Barnyardgrass [14]: 0; Plant response rating, Pigweed [15, 21]: 30; Plant response rating, Pigweed [15, 22]: 40; Plant response rating, Pigweed [16]: 0; Pigweed plant response rating [16]: 20; Plant response rating, Crabgrass, Large [17, 21]: 10; Plant response rating, Crabgrass, Large [17, 22]: 20; Plant response rating, Morningglory [18, 21]: 30; Plant response rating, Morningglory [18, 22]: 50; Plant response rating, Foxtail, Giant [19]: 10; Foxtail, Giant plant response rating [19]: 20; Plant response rating, Velvetleaf [20]: 30; Velvetleaf plant response rating [20]: 50 |
| Cc1cccc(Oc2ncc(Cl)cn2)c1-n1cc(Br)cn1 [Compound 44] | 90 | 90 | 100 | 45 | 50 | 100 | 100 | 100 | 20 | 40 | 0 | 20 | 30 | 90 | 50 | 90 | 50 | 60 | 0 | 30 | Plant response rating, Corn [12]: 0; Corn plant response rating [12]: 20; Plant response rating, Ducksalad [13]: 100; Plant response rating, Barnyardgrass [14]: 20; Plant response rating, Pigweed [15, 21]: 70; Plant response rating, Pigweed [15, 22]: 100; Plant response rating, Pigweed [16]: 100; Pigweed plant response rating [16]: 100; Plant response rating, Crabgrass, Large [17, 21]: 80; Plant response rating, Crabgrass, Large [17, 22]: 100; Plant response rating, Morningglory [18, 21]: 20; Plant response rating, Morningglory [18, 22]: 60; Plant response rating, Foxtail, Giant [19]: 60; Foxtail, Giant plant response rating [19]: 100; Plant response rating, Velvetleaf [20]: 70; Velvetleaf plant response rating [20]: 100 |
| Cc1cccc(Oc2ncc(Br)cn2)c1-n1cc(Br)cn1 [Compound 45] | 75 | 90 | 100 | 0 | 30 | 100 | 100 | 100 | 10 | 70 | 0 | 0 | 40 | 100 | 70 | 90 | 0 | 10 | 0 | 40 | Plant response rating, Corn [12]: 0; Corn plant response rating [12]: 20; Plant response rating, Ducksalad [13]: 85; Plant response rating, Barnyardgrass [14]: 30; Plant response rating, Pigweed [15, 21]: 60; Plant response rating, Pigweed [15, 22]: 80; Plant response rating, Pigweed [16]: 100; Pigweed plant response rating [16]: 100; Plant response rating, Crabgrass, Large [17, 21]: 60; Plant response rating, Crabgrass, Large [17, 22]: 100; Plant response rating, Morningglory [18, 21]: 10; Plant response rating, Morningglory [18, 22]: 20; Plant response rating, Foxtail, Giant [19]: 90; Foxtail, Giant plant response rating [19]: 100; Plant response rating, Velvetleaf [20]: 100; Velvetleaf plant response rating [20]: 100 |
